Laboratory results taken from patent US20110189194A1, “USE OF CD95 INHIBITORS FOR THE TREATMENT OF INFLAMMATORY DISORDERS” (Deutsches Krebsforschungszentrum Stiftung des offentlichen …, priority 2008, published 2011).
“Also recorded” adds a separate entry of the source.

What was measured:
[1] = test system: bone marrow derived neutrophils; experiment: Two chamber in vitro migration assay, neutrophils; type: cell-based, mouse
Protocol: (§1) Migration of bone marrow derived neutrophils or macrophages was assessed in vitro in a two chamber migration assay. Transwell inserts [3 μm (BD #353096) or 8 μm (BD #353097) pore size for neutrophils or macrophages respectively] were coated with matrigel (50 μg/ml; BD #354234). 5×10^5 neutrophils or macrophages were plated in 500 μl medium onto the upper chamber. Cells were left untreated or treated with CD95L-T4 by adding 10, 20 and 40 ng/ml to the upper chamber. The number of migrated cells was counted 3 hours for neutrophils and 24 hours for macrophages after treatment.
The role of metalloproteinases on neutrophil recruitment was investigated by using selective inhibitors of MMP-2/9. Neutrophils were pre-incubated with MMP-2/9 inhibitor (50 μM; Calbiochem #444251) 30 minutes prior to CD95L-T4 treatment and migrating cells were calculated.
Migration of bone marrow derived neutrophils or macrophages was assessed in vitro in a two chamber migration assay. Transwell inserts [3 μm (BD #353096) or 8 μm (BD #353097) pore size for neutrophils or macrophages, respectively] were coated with matrigel (50 μg/ml; BD #354234). 5×10^5 neutrophils, 1×10^6 dHL60 or 2×10^5 macrophages were plated in 500 μl medium onto the upper chamber. Cells were left untreated or treated with CD95L-T4 (engineered Mus musculus CD95L (Kleber et al., 2008)) by adding 10, 20 and 40 ng/ml to the upper chamber. The number of migrated cells was counted 3 h for neutrophils, 4 h for dHL-60 and 24 h for macrophages after treatment by using a hemocytometer. […] Data of the migration assays are representative of at least 4 independent experiments with 6 technical replicates per condition.
(§2) The role of metalloproteinases on neutrophil and macrophage recruitment was investigated by using selective inhibitors of MMP-2/9. Neutrophils, dHL-60 and macrophages were pre-incubated with MMP-2/9 inhibitors (50 μM; Calbiochem #444251) 30 minutes prior to CD95L-T4 treatment and the number of migrated cells was counted at the times indicated previously.

[2] = test system: dHL-60 cells; experiment: Two chamber in vitro migration assay, dHL-60; type: cell-based, human
Protocol: The human myeloid HL-60 cell line (ACC 3) was kindly provided by Dr. Lucie Darner. PMN-like differentiation of HL-60 cells and the electroporation protocol was described previously. Briefly, HL-60 cells were allowed to differentiate in presence of 1.3% DMSO for 6 days before used for protein analysis. Electroporation of dHL-60 cells was performed at day 4. For electroporation, a 400 μL aliquot of dHL-60 (1×10^7 cells/mL) in RPMI was transferred to a Gene Pulser cuvette with an 0.4-cm electrode (Bio-Rad, Hercules, Calif.) and mixed with […] Syk siRNA ON-TARGETplus SMARTpool siRNA or non-targeting SMARTpool siRNA. Cells were incubated for 10 minutes at room temperature (RT) and subjected to an electroporation pulse of 310 V and 1175 μFF (Gene Pulser Biorad, Munich, Germany). 48 h to 72 h after electroporation, Syk knockdown was assessed by Western Blot. At the same time, cells were stimulated with CD95L-T4 and analysed after 4 h for migration.
Migration of bone marrow derived neutrophils or macrophages was assessed in vitro in a two chamber migration assay. Transwell inserts [3 μm (BD #353096) or 8 μm (BD #353097) pore size for neutrophils or macrophages, respectively] were coated with matrigel (50 μg/ml; BD #354234). 5×10^5 neutrophils, 1×10^6 dHL60 or 2×10^5 macrophages were plated in 500 μl medium onto the upper chamber. Cells were left untreated or treated with CD95L-T4 (engineered Mus musculus CD95L (Kleber et al., 2008)) by adding 10, 20 and 40 ng/ml to the upper chamber. The number of migrated cells was counted 3 h for neutrophils, 4 h for dHL-60 and 24 h for macrophages after treatment by using a hemocytometer. […]
as §2

[3] = test system: bone marrow derived macrophages; experiment: Two chamber in vitro migration assay, macrophages; type: cell-based, mouse
Protocol: as §1
Transfection of primary macrophages was performed at day 8 in culture with lipofectamine (Invitrogen #11668019) according to the manufacturer's protocol. Briefly, macrophages were transfected with mouse […] Syk siRNA ON-TARGETplus SMARTpool siRNA or a non-targeting SMARTpool siRNA using Lipofectamine 2000. 48 h later Syk knockdown was assessed by Western Blot. At the same time, cells were stimulated with CD95L-T4 and analysed after 24 h for migration, MMP-activity or Western blots.
Migration of bone marrow derived neutrophils or macrophages was assessed in vitro in a two chamber migration assay. […] The number of migrated cells was counted 3 h for neutrophils, 4 h for dHL-60 and 24 h for macrophages after treatment by using a hemocytometer. […]

[4] = test system: Syk; experiment: Western blot, CD95L-induced phosphorylation of Syk in dHL-60; type: cell-based, human; settings: CD95L 20 and 40 ng/ml
Protocol: (§3) Protein extraction and immunoblotting was performed as previously described. Membranes were probed with the following antibodies: phosphorylated AKT (p-Ser473-AKT, 1:1000, Cell Signaling #9271), total AKT (t-AKT, 1:1000, Cell Signaling #9272), phosphorylated Src (p-Src Tyr 416, 1:1000, Cell Signaling #2101), total Src (1:1000, Cell Signaling #2108), phosphorylated Syk (pSyk Tyr 319/352, 1:1000, Cell Signaling #2701), total Syk (1:1000, Cell Signaling #2712).

[5] = test system: Syk; experiment: Western blot, CD95L-induced phosphorylation of Syk in primary macrophages; type: cell-based, mouse
Protocol: as §3

Row | Compound | CD95L-T4 induced migration of neutrophils (in words) [1] | migration after MMP-2/9 blockade, neutrophils, cell count ± SEM ([1]; CD95L-T4 10 ng/ml, with or without inhibitor 50 μM) | migration after MMP-2/9 blockade, neutrophils, cell count ± SEM ([1]; Control (no CD95L-T4), inhibitor 50 μM, 30 min pre-incubation) | CD95L-T4 induced migration of dHL-60 (in words) [2] | migration after MMP-2/9 blockade, dHL-60, cell count ± SEM ([2]; CD95L-T4 40 ng/ml, with or without inhibitor 50 μM) | migration after MMP-2/9 blockade, dHL-60, cell count ± SEM ([2]; Control (no CD95L-T4), inhibitor 50 μM) | CD95L-T4 induced migration of macrophages (in words) [3] | migration after MMP-2/9 blockade, macrophages, cell count ± SEM ([3]; CD95L-T4 20 ng/ml, with or without inhibitor 50 μM) | CD95L-induced phosphorylation of Syk in dHL-60 [4] | CD95L-induced phosphorylation of Syk in primary macrophages [5]
1 | O=C(O)[C@@H](Cc1ccccc1)NS(=O)(=O)c1ccc(-c2ccccc2)cc1 [MMP-2/9 inhibitor] | blocked | 10 ng/ml: 724.69 ± 150.01 | Control: 713.00 ± 161.89 | blocked | 40 ng/ml: 683.09 ± 170.89 | Control: 658.09 ± 137.65 | blocked | 323.80 ± 100.20 | – | –
2 | CC(C)(C)n1nc(-c2ccc(Cl)cc2)c2c(N)ncnc21 [PP2] | – | – | – | – | – | – | – | – | blocked; also recorded: inhibited | blocked; also recorded: inhibited
